{"source": "patent US20220233550A1", "about": "“PARP INHIBITOR PELLET PREPARATION AND PREPARATION PROCESS THEREFOR” (BEIGENE, LTD., priority 2019, published 2022)", "key": {"[1]": {"experiment": "Fluidity, judged from electron microscope images", "type": "physicochemical", "settings": "electron microscope image, FIG. 1 / FIG. 2", "from_the_text": "FIG. 1 of the description is an electron microscope image of the drug substance Pamiparib, and since the drug substance BGB290 contains crystal water, is very easily agglomerated, and has a poor fluidity, which is not conducive to capsule filling, thereby affecting the industrialized mass production of a formulation. In addition, FIG. 2 of the description is an electron microscope image of the pellets of Example 1. It can be seen from the image that the pellets are round in shape, can be evenly spread under the field of view of an electron microscope, and has a good fluidity. It is sufficient to fulfil the filling of the capsule."}, "[2]": {"tested_on": "BRCA variant in vitro xenograft model", "settings": "vs Olaparib; cited from earlier work"}, "[3]": {"settings": "rodents; cited from earlier work"}, "CYP": {"tested_on": "CYP", "settings": "cited from earlier work"}, "[4]": {"settings": "cited from earlier work"}, "PARP": {"tested_on": "PARP", "settings": "compared with Olaparib and other PARP inhibitors (such as Veliparib); cited from earlier work"}, "PARP-1/2": {"tested_on": "PARP-1/2", "settings": "cited from earlier work"}, "[5]": {"settings": "sesquihydrate; cited from earlier work"}, "[6]": {"tested_on": "cell lines with BRCA1/2 mutations or other HR defects", "settings": "cited from earlier work"}}}
{"compound": "C[C@]12CCCN1CC1=NNC(=O)c3cc(F)cc4[nH]c2c1c34", "note": "[Pamiparib, (R)-2-fluoro-10a-methyl-7,8,9,10,10a,11-hexahydro-5,6,7a,11-tetraazacyclohepta[def]cyclopenta[a]fluoren-4(5H)-one sesquihydrate]", "values": [{"measurement": "fluidity", "setting": "[1]", "value": "poor fluidity"}, {"measurement": "activity relative to Olaparib", "setting": "[2]", "value": "about 16 times"}, {"measurement": "tolerance", "setting": "[3]", "value": "good tolerance"}, {"measurement": "treatment window", "setting": "[3]", "value": "about 10 folds"}, {"measurement": "CYP inhibitory activity", "setting": "CYP", "value": "no CYP inhibitory activity"}, {"measurement": "brain permeability", "setting": "[4]", "value": "significant brain permeability"}, {"measurement": "DNA capture activity", "setting": "PARP", "value": "stronger DNA capture activity"}, {"measurement": "PARP1/2 selectivity", "setting": "PARP-1/2; compared with Olaparib and other PARP inhibitors (such as Veliparib)", "value": "better PARP1/2 selectivity"}, {"measurement": "chemical stability", "setting": "[5]", "value": "excellent chemical stability"}]}
{"compound": "C[C@]12CCCN1CC1=NNC(=O)c3cc(F)cc4[nH]c2c1c34", "note": "[drawing 1, (R)-2-fluoro-10a-methyl-7,8,9,10,10a,11-hexahydro-5,6,7a,11-tetraazacyclohepta[def]cyclopenta[a]fluoren-4(5H)-one]", "values": [{"measurement": "selectivity for PARP-1/2", "setting": "PARP-1/2; free compound of WO 2013/097225A1", "value": "high selectivity for PARP-1/2"}, {"measurement": "inhibition of proliferation", "setting": "[6]", "value": "can effectively inhibit the proliferation"}]}
